Assay [1] deals with T1, Cannabinoid CB1 Receptor (Homo sapiens, UniProt P21554).
T1 construct: expressed in transfected cells
Description: Binding assay for CB1 agonists or inverse agonists (radioligand competition, membranes of transfected SK-N-MC cells). To be noted: for inhibition at 0.2 µM: test concentration of 0.2 μM, compounds without an IC50 binding value, read-out: Cannabinoid CB1 Receptor Binding percent inhibition. In general terms: In a radioligand displacement assay an active substance lowers the binding of a labelled ligand.

Assay [2] deals with T2, Cannabinoid CB2 Receptor (Homo sapiens, UniProt P34972).
T2 construct: expressed in transfected cells
T2 sequence (P34972 whole entry): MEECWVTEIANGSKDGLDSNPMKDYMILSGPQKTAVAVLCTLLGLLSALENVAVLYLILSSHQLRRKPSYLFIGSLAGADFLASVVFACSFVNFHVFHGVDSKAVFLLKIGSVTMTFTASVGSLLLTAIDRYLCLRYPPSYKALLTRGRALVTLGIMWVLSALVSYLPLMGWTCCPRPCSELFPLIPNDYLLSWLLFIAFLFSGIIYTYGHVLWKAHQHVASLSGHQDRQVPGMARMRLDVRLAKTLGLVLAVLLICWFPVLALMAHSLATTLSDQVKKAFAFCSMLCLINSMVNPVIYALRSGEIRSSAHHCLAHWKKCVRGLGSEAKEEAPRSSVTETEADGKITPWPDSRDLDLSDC
In words: Binding assay for CB2 agonists or inverse agonists (radioligand competition, membranes of transfected SK-N-MC cells). To be noted: read-out: Cannabinoid CB2 Receptor Binding percent inhibition.

In assay [3] the target is CB1 receptor (human) (Homo sapiens, UniProt P21554). Description: cell-based.
Chain of CB1 receptor (human) (P21554 whole entry): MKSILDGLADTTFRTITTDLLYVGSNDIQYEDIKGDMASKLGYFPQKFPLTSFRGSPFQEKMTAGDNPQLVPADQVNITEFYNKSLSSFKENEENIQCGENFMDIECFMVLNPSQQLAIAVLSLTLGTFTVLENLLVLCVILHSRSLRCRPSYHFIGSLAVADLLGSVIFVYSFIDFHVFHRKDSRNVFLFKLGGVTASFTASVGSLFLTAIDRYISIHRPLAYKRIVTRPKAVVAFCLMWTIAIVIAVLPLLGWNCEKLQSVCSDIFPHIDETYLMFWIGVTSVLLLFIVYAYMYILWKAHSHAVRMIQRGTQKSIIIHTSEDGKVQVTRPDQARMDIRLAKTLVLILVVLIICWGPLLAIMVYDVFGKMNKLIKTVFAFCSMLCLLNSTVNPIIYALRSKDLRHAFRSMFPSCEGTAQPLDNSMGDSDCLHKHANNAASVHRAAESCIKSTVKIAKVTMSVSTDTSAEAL
Where [4] appears, read: test concentration of 0.2 μM, compounds without an IC50 binding value.

Where two headings read alike, the source gives them in different places.

T1 sequence (P21554 whole entry): as above

On to `COC(=O)N1C/C(=C\c2ccc(F)cc2)c2c(c(C(=O)N[C@H](C)c3ccccc3)nn2-c2ccc(Cl)cc2Cl)C1` [Cpd 1, (7E)-1-(2,4-dichloro-phenyl)-7-(4-fluoro-benzylidene)-3-[(1R)-1-phenyl-ethyl-carbamoyl]-1,4,6,7-tetrahydro-pyrazolo[4,3-c]pyridine-5-carboxylic acid methyl ester], for which, in assay [1], the IC50 – broadly, the point on the concentration scale where inhibition reaches its midpoint – was found to be 0.003 µM. The inhibition – broadly, the change of the read-out against control, counted positive when it falls – at 0.2 µM in assay [2] was 26%. Further, a half-maximal response in assay [3] (EC50) required 0.001 µM.
Compound `C[C@@H](NC(=O)c1nn(-c2ccc(Cl)cc2Cl)c2c1CN(C(=O)OC(C)(C)C)C/C2=C\c1ccc(F)cc1)c1ccccc1` [Cpd 2, (7E)-1-(2,4-dichloro-phenyl)-7-(4-fluoro-benzylidene)-3-[(1R)-1-phenyl-ethyl-carbamoyl]-1,4,6,7-tetrahydro-pyrazolo[4,3-c]pyridine-5-carboxylic acid tert-butyl ester] displayed an IC50 in assay [1] of 0.03 µM. The inhibition at 0.2 µM in assay [2] is 16%. The EC50 (usually the concentration giving half of the maximal effect) in assay [3] is 0.01 µM.
The matching figures for `CC(=O)N1C/C(=C\c2ccc(F)cc2)c2c(c(C(=O)N[C@H](C)c3ccccc3)nn2-c2ccc(Cl)cc2Cl)C1` [Cpd 3, (7E)-5-acetyl-1-(2,4-dichloro-phenyl)-7-(4-fluoro-benzylidene)-4,5,6,7-tetrahydro-1H-pyrazolo[4,3-c]pyridine-3-carboxylic acid [(1R)-1-phenyl-ethyl]-amide]: 0.01 µM, 20% and 0.003 µM.
In the same order, the values of `CC(=O)N1C/C(=C\c2ccc(F)cc2)c2c(c(C(=O)N[C@@H](C)C3CCCCC3)nn2-c2ccc(Cl)cc2Cl)C1` [Cpd 6, (7E)-5-acetyl-1-(2,4-dichloro-phenyl)-7-(4-fluoro-benzylidene)-4,5,6,7-tetrahydro-1H-pyrazolo[4,3-c]pyridine-3-carboxylic acid [(1S)-1-cyclohexyl-ethyl]-amide] are 0.1 µM, 14% and 0.03 µM.
`COC(=O)N1C/C(=C\c2ccc(F)cc2)c2c(c(C(=O)N[C@@H](C)C3CCCCC3)nn2-c2ccc(Cl)cc2Cl)C1` [Cpd 7, (7E)-3-[(1S)-1-cyclohexyl-ethylcarbamoyl]-1-(2,4-dichloro-phenyl)-7-(4-fluoro-benzylidene)-1,4,6,7-tetrahydro-pyrazolo[4,3-c]pyridine-5-carboxylic acid methyl ester] gave an IC50 in assay [1] of 0.04 µM. Further, the inhibition at 0.2 µM in assay [2] (setting [4]) came out at 13%. Moreover, the response in assay [3] was half-maximal at 0.01 µM (EC50).
On to `C[C@@H](NC(=O)c1nn(-c2ccc(Cl)cc2Cl)c2c1CN(C(=O)OC(C)(C)C)C/C2=C\c1ccc(F)cc1)C1CCCCC1` [Cpd 8, (7E)-3-[(1R)-1-cyclohexyl-ethylcarbamoyl]-1-(2,4-dichloro-phenyl)-7-(4-fluoro-benzylidene)-1,4,6,7-tetrahydro-pyrazolo[4,3-c]pyridine-5-carboxylic acid tert-butyl ester], for which, in assay [1], the IC50 was 0.06 µM. The inhibition at 0.2 µM in assay [2] was determined as 34%. Besides, the EC50 in assay [3] was 0.2 µM.
`CCNC(=O)N1CCc2c(c(C(=O)NC3C4(C)CCC(C4)C3(C)C)nn2C2CCCCC2)C1` (stereo not drawn) [Cpd 129, 1-cyclohexyl-1,4,6,7-tetrahydro-pyrazolo[4,3-c]pyridine-3,5-dicarboxylic acid 5-ethylamide 3-[(1,3,3-trimethyl-bicyclo[2.2.1]hept-2-yl)-amide]] came in with an IC50 in assay [1] of 1 µM. In assay [3] (one compound concentration, β-galactosidase activity relative to vehicle treated cells), the “CB1 Receptor Functional Activity (change in functional activity, CRE β-gal)” value worked out at 36%.
In the case of `CC(=O)N1C/C(=C\c2ccc(F)cc2)c2c(c(C(=O)N(C(C)=O)N3CC4CCCC4C3)nn2-c2ccc(Cl)cc2)C1` (stereo not drawn) [Cpd 136, (7E)-5-acetyl-1-(4-chloro-phenyl)-7-(4-fluoro-benzylidene)-4,5,6,7-tetrahydro-1H-pyrazolo[4,3-c]pyridine-3-carboxylic acid acetyl-(hexahydro-cyclopenta[c]pyrrol-2-yl)-amide], the inhibition at 0.2 µM turned out to be 39% in assay [1] and 22% in assay [2] (setting [4]).
In the case of `COc1ccc(/C=C2\CN(C(=O)OC(C)(C)C)Cc3c(C(=O)N4CCCCC4)nn(-c4ccc(Cl)cc4Cl)c32)cc1` [Cpd 137, (7E)-1-(2,4-dichloro-phenyl)-7-(4-methoxy-benzylidene)-3-(piperidine-1-carbonyl)-1,4,6,7-tetrahydro-pyrazolo[4,3-c]pyridine-5-carboxylic acid tert-butyl ester], the inhibition at 0.2 µM in assay [1] turned out to be 34%; in assay [2] (setting [4]), 42%.
Consider `COc1ccc(/C=C2\CN(C(=O)OC(C)(C)C)Cc3c(C(=O)NN4CCC(O)CC4)nn(-c4ccc(Cl)cc4Cl)c32)cc1` [Cpd 141, (7E)-1-(2,4-dichloro-phenyl)-3-(4-hydroxy-piperidin-1-ylcarbamoyl)-7-(4-methoxy-benzylidene)-1,4,6,7-tetrahydro-pyrazolo[4,3-c]pyridine-5-carboxylic acid tert-butyl ester], for which the inhibition at 0.2 µM in assay [1] stood at 6%; in assay [2] (setting [4]) it was 9%.
In the same order, the values of `COc1ccc(/C=C2\CNCc3c(C(=O)NN4CCC(O)CC4)nn(-c4ccc(Cl)cc4Cl)c32)cc1` [Cpd 142, (7E)-1-(2,4-dichloro-phenyl)-7-(4-methoxy-benzylidene)-4,5,6,7-tetrahydro-1H-pyrazolo[4,3-c]pyridine-3-carboxylic acid (4-hydroxy-piperidin-1-yl)-amide] are 10% and 0%.
The matching figures for `CC(C)(C)OC(=O)N1C/C(=C\c2ccc(F)cc2)c2c(c(C(=O)NN3CCC(O)CC3)nn2-c2ccc(Cl)cc2Cl)C1` [Cpd 143, (7E)-1-(2,4-dichloro-phenyl)-7-(4-fluoro-benzylidene)-3-(4-hydroxy-piperidin-1-ylcarbamoyl)-1,4,6,7-tetrahydro-pyrazolo[4,3-c]pyridine-5-carboxylic acid tert-butyl ester]: 4% and 0%.
In the same order, the values of `COC(=O)N1C/C(=C\c2ccc(OC)cc2)c2c(c(C(=O)NN3CCC(O)CC3)nn2-c2ccc(Cl)cc2Cl)C1` [Cpd 144, (7E)-1-(2,4-dichloro-phenyl)-3-(4-hydroxy-piperidin-1-ylcarbamoyl)-7-(4-methoxy-benzylidene)-1,4,6,7-tetrahydro-pyrazolo[4,3-c]pyridine-5-carboxylic acid methyl ester] are 42% and 27%.
In the case of `O=C(NN1CCC(O)CC1)c1nn(-c2ccc(Cl)cc2Cl)c2c1CNC/C2=C\c1ccc(F)cc1` [Cpd 145, (7E)-1-(2,4-dichloro-phenyl)-7-(4-fluoro-benzylidene)-4,5,6,7-tetrahydro-1H-pyrazolo[4,3-c]pyridine-3-carboxylic acid (4-hydroxy-piperidin-1-yl)-amide], the inhibition at 0.2 µM came out at 12% in assay [1] and 5% in assay [2] (setting [4]).
The matching figures for `COC(=O)N1C/C(=C\c2ccc(F)cc2)c2c(c(C(=O)NN3CCC(O)CC3)nn2-c2ccc(Cl)cc2Cl)C1` [Cpd 146, (7E)-1-(2,4-dichloro-phenyl)-7-(4-fluoro-benzylidene)-3-(4-hydroxy-piperidin-1-ylcarbamoyl)-1,4,6,7-tetrahydro-pyrazolo[4,3-c]pyridine-5-carboxylic acid methyl ester]: 40% and 11%.
